Results reported in patent publication US20250066371A1, “FLUOROALKOXYALKYLENE-DIHYDROIMIDAZO[5,1-D]TETRAZINONE COMPOUNDS AND RELATED COMPOUNDS AND THEIR USE IN TREATING MEDICAL CONDITIONS” (priority 2023, published 2025).

Tests used:
Assay in all cases: Cell panel nuclear dye assay
Assay type in all cases: cell-based
[1] = system: 5637; conditions: 120 h, Bladder, 5-day incubation
Method: (§1) Cells were grown in RPMI1640, 10% FBS, 2 mM L-alanyl-L-glutamine, 1 mM Na pyruvate, or a special medium. Cells were seeded into 384-well plates and incubated in a humidified atmosphere of 5% CO2 at 37° C. Compound was added the day following cell seeding. At the same time, a time zero untreated cell plate was generated. After a 5-day incubation period, cells were fixed and stained to allow fluorescence imaging of nuclei.
(§2) Compounds were serially diluted in 2-fold steps from the highest test concentration specified, and assayed over 10 concentrations with a maximum assay concentration of 0.1% DMSO. Automated fluorescence microscopy was carried out using a Molecular Devices ImageXpress Micro XL high-content imager, and images were collected with a 4× objective. 16-bit TIFF images were acquired and analyzed with MetaXpress 5.1.0.41 software.
(§3) Cell proliferation was measured by the fluorescence intensity of an incorporated nuclear dye. The output is referred to as the relative cell count, where the measured nuclear intensity is transformed to percent of control (POC) using the following formula: […]
(§4) Cell count IC50 is the test compound concentration at 50% of maximal possible response. EC50 is the test compound concentration at the curve inflection point or half the effective response (parameter C of the fitted curve solution). GI50 is the concentration needed to reduce the observed growth by half (midway between the curve maximum and the time zero value). Activity area is an estimate of the integrated area above the curve. Activity area values range from 0-10, where a value of zero indicates no inhibition of proliferation at all concentrations, and a value of 10 indicates complete inhibition of proliferation at all concentrations. In rare instances, values <0 or >10 may be observed. In these instances, values <0 should be considered as equivalent to 0, whereas values >10 should be considered equivalent to 10.

[2] = system: 639-V; conditions: Homo sapiens, 120 h, Bladder (ureter), 5-day incubation
Method: as §1, §2, §3, §4

[3] = system: A-253; conditions: Homo sapiens, A253, 120 h, Head & neck (epidermoid carcinoma, salivary gland), 5-day incubation
Method: as §1, §2, §3, §4

[4] = system: A172; conditions: Homo sapiens, A 172, 120 h, Glioma (glioblastoma), 5-day incubation
Method: as §1, §2, §3, §4

[5] = system: BCP-1; conditions: 120 h, Lymphoma (B-cell), 5-day incubation
Method: as §1, §2, §3, §4

[6] = system: BFTC-905; conditions: Homo sapiens, 120 h, Bladder, 5-day incubation
Method: as §1, §2, §3, §4

[7] = system: C32TG; conditions: 120 h, Melanoma, 5-day incubation
Method: as §1, §2, §3, §4

[8] = system: Colo 320DM; conditions: Homo sapiens, 120 h, Colon, 5-day incubation
Method: as §1, §2, §3, §4

[9] = system: DK-MG; conditions: 120 h, Glioma, 5-day incubation
Method: as §1, §2, §3, §4

[10] = system: DMS53; conditions: Homo sapiens, DMS-53, 120 h, Lung (SCLC), 5-day incubation
Method: as §1, §2, §3, §4

[11] = system: HOS; conditions: Homo sapiens, 120 h, Osteosarcoma, 5-day incubation
Method: as §1, §2, §3, §4

[12] = system: Hs 294T; conditions: Homo sapiens, 120 h, Melanoma, 5-day incubation
Method: as §1, §2, §3, §4

[13] = system: Jiyoye; conditions: Homo sapiens, 120 h, Lymphoma (Burkitt's), 5-day incubation
Method: as §1, §2, §3, §4

[14] = system: MT-3; conditions: 120 h, Colon, 5-day incubation
Method: as §1, §2, §3, §4

[15] = system: MeWo; conditions: Homo sapiens, 120 h, Melanoma, 5-day incubation
Method: as §1, §2, §3, §4

[16] = system: NCI-H69; conditions: Homo sapiens, 120 h, Lung (SCLC), 5-day incubation
Method: as §1, §2, §3, §4

[17] = system: OE33; conditions: Homo sapiens, 120 h, Head & neck (esophageal carcinoma), 5-day incubation
Method: as §1, §2, §3, §4

[18] = system: SJRH30; conditions: Homo sapiens, 120 h, Sarcoma (rhabdomyosarcoma), 5-day incubation
Method: as §1, §2, §3, §4

[19] = system: SK-LMS-1; conditions: Homo sapiens, 120 h, Sarcoma (leiomyosarcoma), 5-day incubation
Method: as §1, §2, §3, §4

[20] = system: SNB-19; conditions: Homo sapiens, 120 h, Glioma (astrocytoma), 5-day incubation
Method: as §1, §2, §3, §4

[21] = system: SU-DHL-10; conditions: Homo sapiens, SU-DHL10, 120 h, Lymphoma (large cell), 5-day incubation
Method: as §1, §2, §3, §4

[22] = system: SU-DHL-8; conditions: Homo sapiens, 120 h, Lymphoma (large cell), 5-day incubation
Method: as §1, §2, §3, §4

[23] = system: SW1088; conditions: Homo sapiens, 120 h, Glioma (astrocytoma), 5-day incubation
Method: as §1, §2, §3, §4

[24] = system: SW1783; conditions: Homo sapiens, 120 h, Glioma (astrocytoma), 5-day incubation
Method: as §1, §2, §3, §4

[25] = system: VA-ES-BJ; conditions: 120 h, Sarcoma (epitheloid), 5-day incubation
Method: as §1, §2, §3, §4

[26] = system: WM-266-4; conditions: Homo sapiens, 120 h, Melanoma, 5-day incubation
Method: as §1, §2, §3, §4

NC(=O)c1ncn2c(=O)n(CCOC(F)(F)F)nnc12 [Compound I-1, 4-Oxo-3-(2-(trifluoromethoxy)ethyl)-3,4-dihydroimidazo[5,1-d][1,2,3,5]tetrazine-8-carboxamide]
EC50 [1]: 30 to 70 µM
IC50 [1]: 30 to 70 µM
EC50 [2]: ≤ 30 µM
IC50 [2]: ≤ 30 µM
EC50 [3]: 70 to 150 µM
IC50 [3]: 70 to 150 µM
EC50 [4]: 30 to 70 µM
IC50 [4]: 70 to 150 µM
EC50 [5]: ≤ 30 µM
IC50 [5]: ≤ 30 µM
EC50 [6]: 30 to 70 µM
IC50 [6]: 30 to 70 µM
EC50 [7]: ≤ 30 µM
IC50 [7]: ≤ 30 µM
EC50 [8]: 30 to 70 µM
IC50 [8]: 30 to 70 µM
EC50 [9]: ≤ 30 µM
IC50 [9]: 30 to 70 µM
EC50 [10]: ≤ 30 µM
IC50 [10]: ≤ 30 µM
EC50 [11]: 30 to 70 µM
IC50 [11]: 30 to 70 µM
EC50 [12]: ≤ 30 µM
IC50 [12]: ≤ 30 µM
EC50 [13]: 30 to 70 µM
IC50 [13]: 30 to 70 µM
EC50 [14]: ≤ 30 µM
IC50 [14]: ≤ 30 µM
EC50 [15]: > 150 µM
IC50 [15]: > 150 µM
EC50 [16]: ≤ 30 µM
IC50 [16]: ≤ 30 µM
EC50 [17]: 30 to 70 µM
IC50 [17]: 30 to 70 µM
EC50 [18]: ≤ 30 µM
IC50 [18]: ≤ 30 µM
EC50 [19]: 30 to 70 µM
IC50 [19]: 30 to 70 µM
EC50 [20]: 30 to 70 µM
IC50 [20]: 30 to 70 µM
EC50 [21]: ≤ 30 µM
IC50 [21]: 30 to 70 µM
EC50 [22]: ≤ 30 µM
IC50 [22]: ≤ 30 µM
EC50 [23]: 70 to 150 µM
IC50 [23]: 70 to 150 µM
EC50 [24]: 70 to 150 µM
IC50 [24]: 70 to 150 µM
EC50 [25]: 70 to 150 µM
IC50 [25]: > 150 µM
EC50 [26]: 30 to 70 µM
IC50 [26]: 30 to 70 µM
